Key:
Format in all cases: cell-based, human
[1] = test system: glutamate cysteine ligase (GCL); assay: GCL activity in cultured skin fibroblasts after t-BHQ treatment; conditions: for increase of GCL activity after t-BHQ treatment (factor): t-BHQ vs baseline
Procedure: (§1) Human fibroblast cultures were established from skin biopsies as described in Tosic et al.[8] Cells were grown with DMEM medium (0.5 l medium completed with 10 ml Ultroser-G serum, 5 ml Penicillin/Streptomycin, 5 ml sodium pyruvate (100 mM)) at 37° C. in a humidified atmosphere containing 5% CO2/95% air. Human fibroblasts near confluence after five passages were treated for 18 h with 50 μM t-BHQ in 0.05% DMSO (t-BHQ condition) or 0.05% DMSO alone (baseline condition). Cells were washed once with phosphate-buffer saline (PBS), trypsinized and pelleted. The pellet was washed once, taken up into PBS and frozen. GSH content and GCL activity was determined in protein extracts from fibroblasts cultures, with a fluorescence-based microtiter plate assay according to White and colleagues [White et al, 2003]. GCL activity was determined as the difference between GSH synthesis in unblocked and GSH synthesis in BSO treated wells per min and per mg protein. Protein concentration has been determined by BCA protein assay. In addition, GSH contents under untreated conditions were also routinely measured in all participants that had spent skin fibroblasts (33 controls and 39 patients) by a colorimetric GSH assay kit (Calbiochem, San Diego, USA).

skin fibroblasts = assay: GSH content in cultured skin fibroblasts after t-BHQ treatment; conditions: for GSH content: t-BHQ treated (50 μM, 18 h)
Procedure: as §1

GCLM = GCLM protein expression by Western Blot in skin fibroblasts after t-BHQ treatment; conditions: for increase of GCLM protein expression induced by t-BHQ treatment: t-BHQ vs baseline; for GCLM protein expression: t-BHQ treated (50 μM, 18 h)
Procedure: (§2) Human fibroblast cultures were established from skin biopsies as described in Tosic et al.[8] Cells were grown with DMEM medium (0.5 l medium completed with 10 ml Ultroser-G serum, 5 ml Penicillin/Streptomycin, 5 ml sodium pyruvate (100 mM)) at 37° C. in a humidified atmosphere containing 5% CO2/95% air. Human fibroblasts near confluence after five passages were treated for 18 h with 50 μM t-BHQ in 0.05% DMSO (t-BHQ condition) or 0.05% DMSO alone (baseline condition). Cell lysis was performed on ice. Cells were washed with PBS and scraped with lysis buffer (2.37 ml scraping buffer (Tris-HCl 50 mM, pH 7.2; NaCl 150 mM; NaF 10 mM; EDTA 2 mM; EGTA 2 mM; Triton X100 1%); 100 μl Complete (1 tablet/2 ml H2O); 25 μl PMSF 100 mM; 2.5 μl DTT 1 mM). Lysates were homogenized 10 times with a 25-gauge needle, and cellular debris were cleared by centrifugation (20,000 g, 14 min, 4° C.). Protein concentration was determined by BCA protein assay. Equal amounts of protein (50 μg) were dissolved in 5× Laemmli sample buffer, separated by 12% SDS-PAGE, and electro-transferred to a PVDF membrane. Membranes were blocked (BSA 1%/milk powder 3%) overnight at 4° C. Following incubation with primary and secondary antibodies, protein was visualized by using the ECL detection system and protein abundance was quantified by densitometry analysis (Multi Genius, Bio Imaging System, Syngene). A fibroblast protein pool from 5 different individuals was used as an external control in all experiments. The results were normalized to a -Tubulin, and reported relative to the specific protein levels measured in the protein pool.

GCLC = GCLC protein expression by Western Blot in skin fibroblasts after t-BHQ treatment; conditions: for increase of GCLC protein expression by t-BHQ treatment (factor): t-BHQ vs baseline
Procedure: as §2

[2] = t-BHQ treatment, subjects with GCLC GAG TNR genotypes 7/7 & 7/9
[3] = t-BHQ treatment, subjects with genotypes 7/8, 8/8, 8/9 & 9/9
[4] = fibroblasts of control subjects
[5] = fibroblasts of schizophrenia patients

`CC(C)(C)c1cc(O)ccc1O` [t-BHQ, tert-butylhydroquinone] was tested, and the “increase of GCL activity after t-BHQ treatment (factor)” value ([1]; controls) was 3.45, the “increase of GCL activity after t-BHQ treatment (factor)” value ([1]; patients) was 2.95 and the GCL activity ([1]; t-BHQ treated (50 μM, 18 h), fibroblasts of control subjects, average and standard deviation) was 0.847 ± 0.26 nmol GSH/min/mg protein. It also gave a GCL activity ([1]; t-BHQ treated (50 μM, 18 h), fibroblasts of schizophrenia patients, average and standard deviation) of 0.627 ± 0.16 nmol GSH/min/mg protein, a GCL activity [1, 2] of 0.784±0.246 and a GCL activity [1, 3] of 0.584±0.141. The GSH content (skin fibroblasts; [4]) was 144.9 ± 21.5 nmol GSH/mg protein, the GSH content (skin fibroblasts; [5]) was 136.3 ± 19.1 nmol GSH/mg protein and the “increase of GSH content after t-BHQ treatment (factor)” value (skin fibroblasts; very similar in patients and controls, t-BHQ vs baseline) was 2.53. For the same compound, the “increase of GCLM protein expression induced by t-BHQ treatment” value (GCLM; control subjects) was 73%, the “increase of GCLM protein expression induced by t-BHQ treatment” value (GCLM; patients) was 74% and the GCLM protein expression (GCLM; [4]) was 108.0 ± 24.0 α-Tubulin corrected arbitrary units. For the same compound, the GCLM protein expression (GCLM; [5]) was 107.6 ± 24.1 α-Tubulin corrected arbitrary units, the “increase of GCLC protein expression by t-BHQ treatment (factor)” value (GCLC; controls) was 1.44 and the “increase of GCLC protein expression by t-BHQ treatment (factor)” value (GCLC; patients) was 1.32. The GCLC protein expression (GCLC; t-BHQ treated (50 μM, 18 h), fibroblasts of control subjects) was 64.1 ± 17.5 α-Tubulin corrected arbitrary units, the GCLC protein expression (GCLC; t-BHQ treated (50 μM, 18 h), fibroblasts of schizophrenia patients) was 45.4 ± 15.8 α-Tubulin corrected arbitrary units and the GCLC protein expression (GCLC; [2]) was 58.9±19.0. The GCLC protein expression (GCLC; [3]) was 45.6±13.3.

— patent publication US20100221736A1, “METHOD FOR PREDICTING SUSCEPTIBILITY TO A MENTAL DISORDER” (priority 2007, published 2010)
